Experimental data: patent publication US11053204B2, “Pyrimidinyloxy benzene derivatives as herbicides” (FMC Corporation, priority 2015, dated 2021)

Tests used:
Format in all cases: in vivo
[1] = system: sedge, umbrella (small-flower umbrella sedge, Cyperus difformis); assay: Test B flooded paddy test, plant response rating; conditions: 250 g ai/ha; Flood; scale of 0 to 100 where 0 is no effect and 100 is complete control; 13 to 15 days
Summary of the method: (§1)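 In-water treatment: compound dosed into 3 cm flood over soil, water level unchanged throughout. Controls run alongside; visual assessment at day 13–15.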

[2] = system: rice (Oryza sativa); assay: Test B flooded paddy test, plant response rating; conditions: 250 g ai/ha; Flood; scale of 0 to 100 where 0 is no effect and 100 is complete control; 13 to 15 days
Summary of the method: as §1

[3] = system: ducksalad (Heteranthera limosa); assay: Test B flooded paddy test, plant response rating; conditions: 250 g ai/ha; Flood; scale of 0 to 100 where 0 is no effect and 100 is complete control; 13 to 15 days
Summary of the method: as §1

[4] = system: surinam grass (Brachiaria decumbens); assay: Test C preemergence, plant response rating
[5] = system: oat, wild (wild oat Avena fatua); assay: Test C preemergence, plant response rating
[6] = system: corn (Zea mays); assay: Test C preemergence, plant response rating; conditions: Preemergence
Summary of the method: (§2)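 Both timings shared one formulation, a non-phytotoxic solvent mixture with surfactant, and a greenhouse period of 13 to 15 d. Preemergence used seeded loam/sand or silt loam soil, postemergence used 2 to 18 cm plants; visual ratings ran from 0 (no effect) to 100 (complete control).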

[7] = system: wheat (winter wheat, Triticum aestivum); assay: Test C preemergence, plant response rating; conditions: Preemergence
Summary of the method: as §2

[8] = system: nutsedge, yellow (yellow nutsedge, Cyperus esculentus); assay: Test C preemergence, plant response rating; conditions: Preemergence
Summary of the method: as §2

[9] = system: morningglory (Ipomoea coccinea); assay: Test C preemergence, plant response rating; conditions: Preemergence
Summary of the method: as §2

[10] = system: blackgrass (Alopecurus myosuroides); assay: Test C preemergence, plant response rating; conditions: Preemergence
Summary of the method: as §2

[11] = system: oilseed rape (Brassica napus); assay: Test C preemergence, plant response rating; conditions: Preemergence
Summary of the method: as §2

[12] = system: waterhemp (common waterhemp, Amaranthus rudis); assay: Test C preemergence, plant response rating; conditions: Preemergence
Summary of the method: as §2

[13] = system: ragweed (common ragweed, Ambrosia elatior); assay: Test C preemergence, plant response rating; conditions: Preemergence
Summary of the method: as §2

[14] = system: velvetleaf (Abutilon theophrasti); assay: Test C preemergence, plant response rating; conditions: Preemergence
Summary of the method: as §2

[15] = system: ryegrass, Italian (Italian ryegrass, Lolium multiflorum); assay: Test C preemergence, plant response rating; conditions: Preemergence
Summary of the method: as §2

[16] = system: soybean (Glycine max); assay: Test C preemergence, plant response rating; conditions: Preemergence
Summary of the method: as §2

[17] = system: crabgrass, large (large crabgrass, Digitaria sanguinalis); assay: Test C preemergence, plant response rating; conditions: Preemergence
Summary of the method: as §2

[18] = system: foxtail, giant (giant foxtail, Setaria faberii); assay: Test C preemergence, plant response rating; conditions: Preemergence
Summary of the method: as §2

[19] = system: lambsquarters (Chenopodium album); assay: Test C preemergence, plant response rating; conditions: Preemergence
Summary of the method: as §2

[20] = system: wild poinsettia (Euphorbia heterophylla); assay: Test C preemergence, plant response rating

SMILES: CCCC(=O)c1c(Oc2ncc(Cl)cn2)cccc1C(F)(F)F [Compound 136]
- Plant response rating, Sedge, Umbrella [1]: 80
- Plant response rating, Rice [2]: 35
- Plant response rating, Ducksalad [3]: 60
- Plant response rating, Surinam Grass ([4]; 31 g ai/ha, scale 0 to 100): 25
- Plant response rating, Surinam Grass ([4]; 62 g ai/ha, scale 0 to 100): 10
- Plant response rating, Surinam Grass ([4]; 125 g ai/ha, scale of 0 to 100): 100
- Plant response rating, Oat, Wild ([5]; 31 g ai/ha, scale 0 to 100): 0
- Plant response rating, Oat, Wild ([5]; 62 g ai/ha, scale 0 to 100): 5
- Plant response rating, Oat, Wild ([5]; 125 g ai/ha, scale of 0 to 100): 45
- Plant response rating, Corn ([6]; 125 g ai/ha, scale of 0 to 100): 5
- Plant response rating, Corn ([6]; 16 g ai/ha, scale 0 to 100): 0
- Plant response rating, Corn ([6]; 31 g ai/ha, scale 0 to 100): 0
- Plant response rating, Corn ([6]; 62 g ai/ha, scale 0 to 100): 5
- Plant response rating, Wheat ([7]; 125 g ai/ha, scale of 0 to 100): 10
- Plant response rating, Wheat ([7]; 31 g ai/ha, scale 0 to 100): 0
- Plant response rating, Wheat ([7]; 62 g ai/ha, scale 0 to 100): 0
- Plant response rating, Nutsedge, Yellow ([8]; 125 g ai/ha, scale of 0 to 100): 5
- Plant response rating, Nutsedge, Yellow ([8]; 31 g ai/ha, scale 0 to 100): 0
- Plant response rating, Nutsedge, Yellow ([8]; 62 g ai/ha, scale 0 to 100): 0
- Plant response rating, Morningglory ([9]; 125 g ai/ha, scale of 0 to 100): 30
- Plant response rating, Morningglory ([9]; 31 g ai/ha, scale 0 to 100): 0
- Plant response rating, Morningglory ([9]; 62 g ai/ha, scale 0 to 100): 5
- Plant response rating, Blackgrass ([10]; 125 g ai/ha, scale of 0 to 100): 95
- Plant response rating, Blackgrass ([10]; 16 g ai/ha, scale 0 to 100): 0
- Plant response rating, Blackgrass ([10]; 31 g ai/ha, scale 0 to 100): 35
- Plant response rating, Blackgrass ([10]; 62 g ai/ha, scale 0 to 100): 60
- Plant response rating, Oilseed Rape ([11]; 125 g ai/ha, scale of 0 to 100): 98
- Plant response rating, Oilseed Rape ([11]; 31 g ai/ha, scale 0 to 100): 5
- Plant response rating, Oilseed Rape ([11]; 62 g ai/ha, scale 0 to 100): 70
- Plant response rating, Waterhemp ([12]; 125 g ai/ha, scale of 0 to 100): 100
- Plant response rating, Waterhemp ([12]; 31 g ai/ha, scale 0 to 100): 100
- Plant response rating, Waterhemp ([12]; 62 g ai/ha, scale 0 to 100): 100
- Plant response rating, Ragweed ([13]; 125 g ai/ha, scale of 0 to 100): 40
- Plant response rating, Ragweed ([13]; 31 g ai/ha, scale 0 to 100): 20
- Plant response rating, Ragweed ([13]; 62 g ai/ha, scale 0 to 100): 0
- Plant response rating, Velvetleaf ([14]; 125 g ai/ha, scale of 0 to 100): 65
- Plant response rating, Velvetleaf ([14]; 31 g ai/ha, scale 0 to 100): 5
- Plant response rating, Velvetleaf ([14]; 62 g ai/ha, scale 0 to 100): 15
- Plant response rating, Ryegrass, Italian ([15]; 125 g ai/ha, scale of 0 to 100): 65
- Plant response rating, Ryegrass, Italian ([15]; 31 g ai/ha, scale 0 to 100): 30
- Plant response rating, Ryegrass, Italian ([15]; 62 g ai/ha, scale 0 to 100): 35
- Plant response rating, Soybean ([16]; 125 g ai/ha, scale of 0 to 100): 40
- Plant response rating, Soybean ([16]; 31 g ai/ha, scale 0 to 100): 0
- Plant response rating, Soybean ([16]; 62 g ai/ha, scale 0 to 100): 15
- Plant response rating, Crabgrass, Large ([17]; 125 g ai/ha, scale of 0 to 100): 100
- Plant response rating, Crabgrass, Large ([17]; 16 g ai/ha, scale 0 to 100): 50
- Plant response rating, Crabgrass, Large ([17]; 31 g ai/ha, scale 0 to 100): 85
- Plant response rating, Crabgrass, Large ([17]; 62 g ai/ha, scale 0 to 100): 100
- Plant response rating, Foxtail, Giant ([18]; 125 g ai/ha, scale of 0 to 100): 100
- Plant response rating, Foxtail, Giant ([18]; 31 g ai/ha, scale 0 to 100): 65
- Plant response rating, Foxtail, Giant ([18]; 62 g ai/ha, scale 0 to 100): 70
- Plant response rating, Lambsquarters ([19]; 125 g ai/ha, scale of 0 to 100): 80
- Plant response rating, Lambsquarters ([19]; 31 g ai/ha, scale 0 to 100): 30
- Plant response rating, Lambsquarters ([19]; 62 g ai/ha, scale 0 to 100): 25
- Plant response rating, Poinsettia, Wild ([20]; 31 g ai/ha, scale 0 to 100): 5
- Plant response rating, Poinsettia, Wild ([20]; 62 g ai/ha, scale 0 to 100): 25
- Plant response rating, Poinsettia, Wild ([20]; 125 g ai/ha, scale of 0 to 100): 50

SMILES: FC(F)(F)CCCCc1c(Br)cccc1Oc1ncc(Cl)cn1 [Compound 138]
- Plant response rating, Sedge, Umbrella [1]: 85
- Plant response rating, Rice [2]: 45
- Plant response rating, Ducksalad [3]: 100
- Plant response rating, Surinam Grass ([4]; 31 g ai/ha, scale 0 to 100): 65
- Plant response rating, Surinam Grass ([4]; 62 g ai/ha, scale 0 to 100): 65
- Plant response rating, Surinam Grass ([4]; 125 g ai/ha, scale of 0 to 100): 75
- Plant response rating, Oat, Wild ([5]; 31 g ai/ha, scale 0 to 100): 0
- Plant response rating, Oat, Wild ([5]; 62 g ai/ha, scale 0 to 100): 5
- Plant response rating, Oat, Wild ([5]; 125 g ai/ha, scale of 0 to 100): 30
- Plant response rating, Corn ([6]; 125 g ai/ha, scale of 0 to 100): 5
- Plant response rating, Corn ([6]; 16 g ai/ha, scale 0 to 100): 0
- Plant response rating, Corn ([6]; 31 g ai/ha, scale 0 to 100): 0
- Plant response rating, Corn ([6]; 62 g ai/ha, scale 0 to 100): 5
- Plant response rating, Wheat ([7]; 125 g ai/ha, scale of 0 to 100): 10
- Plant response rating, Wheat ([7]; 31 g ai/ha, scale 0 to 100): 5
- Plant response rating, Wheat ([7]; 62 g ai/ha, scale 0 to 100): 5
- Plant response rating, Nutsedge, Yellow ([8]; 125 g ai/ha, scale of 0 to 100): 0
- Plant response rating, Nutsedge, Yellow ([8]; 31 g ai/ha, scale 0 to 100): 0
- Plant response rating, Nutsedge, Yellow ([8]; 62 g ai/ha, scale 0 to 100): 0
- Plant response rating, Morningglory ([9]; 125 g ai/ha, scale of 0 to 100): 10
- Plant response rating, Morningglory ([9]; 31 g ai/ha, scale 0 to 100): 0
- Plant response rating, Morningglory ([9]; 62 g ai/ha, scale 0 to 100): 0
- Plant response rating, Blackgrass ([10]; 125 g ai/ha, scale of 0 to 100): 90
- Plant response rating, Blackgrass ([10]; 16 g ai/ha, scale 0 to 100): 10
- Plant response rating, Blackgrass ([10]; 31 g ai/ha, scale 0 to 100): 50
- Plant response rating, Blackgrass ([10]; 62 g ai/ha, scale 0 to 100): 80
- Plant response rating, Oilseed Rape ([11]; 125 g ai/ha, scale of 0 to 100): 20
- Plant response rating, Oilseed Rape ([11]; 31 g ai/ha, scale 0 to 100): 0
- Plant response rating, Oilseed Rape ([11]; 62 g ai/ha, scale 0 to 100): 5
- Plant response rating, Waterhemp ([12]; 125 g ai/ha, scale of 0 to 100): 98
- Plant response rating, Waterhemp ([12]; 31 g ai/ha, scale 0 to 100): 85
- Plant response rating, Waterhemp ([12]; 62 g ai/ha, scale 0 to 100): 100
- Plant response rating, Ragweed ([13]; 125 g ai/ha, scale of 0 to 100): 10
- Plant response rating, Ragweed ([13]; 31 g ai/ha, scale 0 to 100): 0
- Plant response rating, Ragweed ([13]; 62 g ai/ha, scale 0 to 100): 0
- Plant response rating, Velvetleaf ([14]; 125 g ai/ha, scale of 0 to 100): 50
- Plant response rating, Velvetleaf ([14]; 31 g ai/ha, scale 0 to 100): 25
- Plant response rating, Velvetleaf ([14]; 62 g ai/ha, scale 0 to 100): 20
- Plant response rating, Ryegrass, Italian ([15]; 125 g ai/ha, scale of 0 to 100): 80
- Plant response rating, Ryegrass, Italian ([15]; 31 g ai/ha, scale 0 to 100): 10
- Plant response rating, Ryegrass, Italian ([15]; 62 g ai/ha, scale 0 to 100): 20
- Plant response rating, Soybean ([16]; 125 g ai/ha, scale of 0 to 100): 5
- Plant response rating, Soybean ([16]; 31 g ai/ha, scale 0 to 100): 0
- Plant response rating, Soybean ([16]; 62 g ai/ha, scale 0 to 100): 0
- Plant response rating, Crabgrass, Large ([17]; 125 g ai/ha, scale of 0 to 100): 98
- Plant response rating, Crabgrass, Large ([17]; 16 g ai/ha, scale 0 to 100): 75
- Plant response rating, Crabgrass, Large ([17]; 31 g ai/ha, scale 0 to 100): 95
- Plant response rating, Crabgrass, Large ([17]; 62 g ai/ha, scale 0 to 100): 98
- Plant response rating, Foxtail, Giant ([18]; 125 g ai/ha, scale of 0 to 100): 100
- Plant response rating, Foxtail, Giant ([18]; 31 g ai/ha, scale 0 to 100): 80
- Plant response rating, Foxtail, Giant ([18]; 62 g ai/ha, scale 0 to 100): 85
- Plant response rating, Lambsquarters ([19]; 125 g ai/ha, scale of 0 to 100): 70
- Plant response rating, Lambsquarters ([19]; 31 g ai/ha, scale 0 to 100): 35
- Plant response rating, Lambsquarters ([19]; 62 g ai/ha, scale 0 to 100): 25
- Plant response rating, Poinsettia, Wild ([20]; 31 g ai/ha, scale 0 to 100): 0
- Plant response rating, Poinsettia, Wild ([20]; 62 g ai/ha, scale 0 to 100): 5
- Plant response rating, Poinsettia, Wild ([20]; 125 g ai/ha, scale of 0 to 100): 50
